From patent US20020192776A1, “Heliothis glutamate receptor” (Aventis Cropscience SA, priority 2000, published 2002)

Test system: lepidopteran glutamate-gated chloride channel
Assay: two-electrode voltage clamp recordings of Xenopus oocytes injected with HEGE2 mRNA
Type: cell-based, Heliothis virescens
Conditions: held at -80 mV
Procedure: Messenger RNA was produced from the cDNA template of HEGE2 by in vitro transcription with the Ambion mMESSAGE mMACHINE IN VITRO TRANSCRIPTION KIT (Ambion, Inc.). The mRNA was injected into oocytes by the following procedure.
Frogs were anesthetized in a 2 gram/liter solution of 3-amino benzoic acid ethyl ester for thirty minutes, after which oocytes were surgically removed from the abdominal cavity. Follicles were digested by collagenase treatment under sterile conditions by standard methods. Oocytes were injected with 50 nl of 1 μg/μl mRNA by glass electrodes.
After a 24 hr incubation, two-electrode voltage clamp recordings were made. Recordings were made using a Dagan, TEV200 voltage clamp interfaced with a MacLab4 data acquisition system running the MacLab Chart data acquisition/analysis software. Oocytes were positioned under a dissection scope under constant perfusion with frog saline (96 mM of NaCl, 2 mM of KCl, 1 mM of MgCl2, 1.8 mM of CaCl2 and 10 mM of HEPES, pH 7.5) using a Razel syringe perfusion pump. Model A99-FY at 93.9 cc/hr. Glass electrodes (A-M Systems. Inc. 1.5 mm×0.86 mm) were filled with 3 M KCl and resistance (a function of the diameter of the channel opening) was measured to be between 0.7 and 1.5 mega ohms. Both electrodes were inserted into the oocyte at opposite sides, the resting potential was recorded and the voltage clamp turned on. […]

N[C@@H](CCC(=O)O)C(=O)O [glutamate]
activation of membrane (chloride) current (100 uM glutamate, Xenopus oocytes injected with 50 ng of HEGE2 mRNA, FIG. 1): activate a membrane current

Ivermectin phosphate
activation of current in oocytes (One micromolar Ivermectin phosphate, Xenopus oocytes expressing HEGE2): slowly and irreversibly activated current
